Measurements: patent US9895362B2, “Pharmaceutical composition combining an anticonvulsant and a derivate of nicotinic acid” (Farmacéuticos Rayere, S.A., priority 2014, dated 2018)

How the values were obtained:
[1] = tested on: neuropathic pain; experiment: Overall conclusions from both mouse models of neuropathic pain; format: in vivo, mice; settings: lysine clonixinate alone, in the studies performed
Source text: In the present study, we used two mouse models to study neuropathic pain: the model of diabetic neuropathy induced by streptozotocin and the model of neuropathic pain induced by a physical injury to the sciatic nerve.

[2] = tested on: mechanical allodynia (injury of the sciatic nerve); experiment: Experimental model of neuropathic pain due to injury (ligation and cutting) of the sciatic nerve; mechanical allodynia by Von Frey filaments assay; isobolographic analysis; format: in vivo, mice; settings: for DE30: drugs administered individually, intraperitoneal, linear regression, AUC at 4 hours; for dose dependence of antiallodynic effect: intraperitoneal administration
Source text: To evaluate the analgesic efficacy of the CLG combination in neuropathic pain due to injury to the nerve, an experimental model of neuropathic pain due to ligation and cutting of sciatic nerve in mice was used. The procedure used was based on that described by I. Decosterd and C. J. Woolf (2000), which consists of isolating, tying and injuring the sciatic nerve of the mouse, followed by evaluation of the mechanical allodynia resulting from damage to the nerve.
The surgery consisted of making an incision of approximately 1 cm in the direction proximal longitudinal to the knee and afterwards opening the skin by blunt dissection and separating the muscular layer by dissection lateral to the blood vessel near the femur. Then the right sciatic nerve was exposed under the muscles, separating them with care to display the sciatic nerve in the region where it branches from the sural nerve. Only the sciatic nerve was sutured with No. 6 thread, trying not to damage the sural nerve in any way. A tight surgical knot was made on the sciatic nerve by cutting below the suture with a pair of tweezers, then stitching the muscle layer and the skin by surgical knots. […] Consequently, the antiallodynic effect of the drugs is evaluated from the second or third day after the surgery. For validation of the model, as a surgery control group, a sham surgery was used, in which the sciatic nerve is only exposed surgically, without ligation or cutting, and then the muscle tissue and skin is stitched.
In all groups, the evaluation of mechanical allodynia with the application of Von Frey filaments was done in the same manner as described above for the model of pain due to diabetic neuropathy. The response thresholds in both legs, ipsilateral (right) and contralateral (left), were evaluated.
For systemic administration of the drugs individually and in combinations in the mechanical allodynia model, different groups were used to characterize the dose-response curve by administering the drugs on the third day after the surgery. The doses for gabapentin were 50, 100 and 150 mg/kg, and for lysine clonixinate they were 75, 150 and 300 mg/kg. Afterwards, as described below, other groups were administered different doses of the CLG combination. Both gabapentin and lysine clonixinate and their combinations were dissolved in a 0.9% saline solution. Groups of animals were used with an experimental n of 6 to 8. A 0.9% saline solution was administered by intraperitoneal route to an experimental control group.
To evaluate the net antiallodynic effect, the area under the curve of the time courses evaluated at 4 hours post treatment, both of the ipsilateral and the contralateral leg, was obtained using the trapezoid rule. […] FIG. 10 represents the dose-antiallodynic effect curves, corresponding to gabapentin and lysine clonixinate administered individually. By means of linear regression, the DE30 values of the drugs administered individually were obtained.
In the same way as was done in the previous model, isobolographic analysis was used to evaluate the effect of the CLG combination in relation to the effect of each drug individually. From the respective DE30 of the individual drugs, combinations of gabapentin and CL in fixed proportions were evaluated.

[3] = tested on: mechanical allodynia (diabetic neuropathy induced with streptozotocin); experiment: Model of pain due to diabetic neuropathy induced with streptozotocin; mechanical allodynia by Von Frey filaments assay; isobolographic analysis; format: in vivo, male BALB/c mice; settings: for DE30 (effective dose that provides an analgesic effect of 30%): drugs administered individually, antiallodynic effect from AUC at 4 hours post-treatment; for dose-antiallodynic effect curve: gabapentin 50, 100, 150 mg/kg, lysine clonixinate 75, 150, 300 mg/kg, individually
Protocol: In this example, a model of neuropathic pain induced by streptozotocin in male BALB/c mice 6-8 weeks of age is used. The procedure used was based on one described and widely validated (Ahlgren, S. C. and Levine, J. D., 1993), which consists in an intraperitoneal injection of streptozotocin (45 mg/kg) in 0.2 mL of saline solution. […] The blood glucose levels were evaluated in 4 groups of mice with the following characteristics: 1) without treatment (basal), 2) with treatment in fasting, 3) after 1 day of treatment and 4) after 4 days of treatment. As a diabetes parameter, a plasma glucose level≧200 mg/dL was taken.
Allodynia was determined by mechanical stimulation through progressively […] application of different forces with Von Frey filaments of different caliber. The mice were placed in plastic cylinders on a wire mesh table for 15 minutes, ensuring that they were calm, and subsequently the filaments were progressively applied to the side of the leg. The filament of 0.02 g of force was the first to be applied to the left leg, five times during a total period of 30 seconds (approximately 2 seconds per stimulus), the reaction of the mouse being determined after each application. The response observed is the withdrawal or licking of the leg. If three of the five stimuli are observed, the reaction is considered positive and the mechanical threshold of the response is established.
Different groups were used to characterize the dose-response curve of the analgesics, administering the drugs after inducing of diabetes. The doses for gabapentin were 50, 100 and 150 mg/kg, and for lysine clonixinate they were 75, 150 and 300 mg/kg. Groups of animals were used with n≧8. A 0.9% saline solution was administered by intraperitoneal route as a control of each experimental group.
For determination of antiallodynic efficacy, the mean threshold in each group was plotted as a function of time after the administration of the drugs individually or in combination, and the area below the curve (ABC) was obtained using the trapezoid rule. The percentage increase of the threshold was calculated using the following equation: […]
To evaluate the net antiallodynic effect, the area under the curve of the time courses evaluated at 4 hours post-treatment was obtained.
To evaluate the effect of the CLG combination in relation to the effect of each drug individually, isobolographic analysis was used. […] From the respective DE30 of the individual drugs, combinations of gabapentin and CL in fixed proportions were made and evaluated.
Subsequently, a dose-response curve was plotted after coadministration of the two drugs. […] The data represent the mean and the standard error of 8 mice.
Once the DE30 values, both the theoretical and experimental, were obtained, a statistical comparison of the additive theoretical point and the experimental DE30 value was done using a Student's t-test. The type of interaction between the two drugs was established by constructing an isobologram as follows. For each of the individual agents, the dose that produces 30% of antiallodynic effect (DE30) was plotted in rectangular coordinates (x, y). The line that connects these two points is termed “isobolic” or the “additivity line,” and on this line are all the possible combinations of the two drugs that produce only an additivity or summation effect.
To describe the magnitude of the interaction, the interaction index value (γ), which is a quantitative measure of the interaction between two drugs, was calculated: […]

[4] = tested on: neurological profile (behavior, reflexes, convulsions, motor coordination); experiment: Neurological profile after subchronic administration (14 days); format: in vivo, mice; settings: for value of all the parameters of the neurological profile: 14 days of treatment, at these doses; for Behavior: Exploratory Activity / Behavior: Flabbiness / Behavior: Irritability / Behavior: State of Alert / Behavior: Straightening of Tail / Behavior: Vocalization / Convulsions: Clonic / Convulsions: Gait Movements / Convulsions: Jumping Movement / Convulsions: Tonic / Motor Coordination: Abnormal Gait / Motor Coordination: Paralysis / Motor Coordination: Running in Circles / Motor Coordination: Staggering Gait / Reflexes: Corneal: i.p. daily 14 days, gabapentin 31 mg/kg, lysine clonixinate 150 mg/kg, or both
Protocol: The motor activity and biochemical profile evaluation data were evaluated by an analysis of variance (ANOVA), followed by a Dunnett test. The neurological profile data were evaluated by grading, with 0=null, […] and 3=significant. […] This administration was done consecutively every 24 hours. After 14 days of exposure, toxicological tests were done. A daily evaluation was simultaneously done of the neurological profile, since one critical aspect in all experimental models of nervous system pathologies is evaluation of the final neurological prognosis. In the case of subchronic administration of medication, evaluation of the final functional deficit is a valuable tool. Therefore, after receiving a daily dose for 14 days, the mice underwent an evaluation of the neurological profile of the experimental animals. This evaluation included parameters such as behavior, reflexes, convulsions and motor coordination. Each parameter was graded on a scale of 0=null, 1=slight, 2=moderate and 3=considerable.

[5] = patients treated with gabapentin; cited from earlier work

Structure (SMILES)	DE30 [2]	dose dependence of antiallodynic effect [2]	DE30 (effective dose that provides an analgesic effect of 30%) ([3]; diabetic neuropathy model)	dose-antiallodynic effect curve [3]	value of all the parameters of the neurological profile [4]	Behavior: Exploratory Activity [4]	Behavior: Flabbiness [4]	Behavior: Irritability [4]	Behavior: State of Alert [4]	Behavior: Straightening of Tail [4]	Behavior: Vocalization [4]	Convulsions: Clonic [4]	Convulsions: Gait Movements [4]	Convulsions: Jumping Movement [4]	Convulsions: Tonic [4]	Motor Coordination: Abnormal Gait [4]	Motor Coordination: Paralysis [4]	Motor Coordination: Running in Circles [4]	Motor Coordination: Staggering Gait [4]	Reflexes: Corneal [4]	other results
Cc1c(Cl)cccc1Nc1ncccc1C(=O)O.NCCCC[C@H](N)C(=O)O [lysine clonixinate, lysine salt of 2-[(3-chloro-2-methylphenyl)amino]-3-pryridinecarboxylic acid]	579.67 mg/kg	dose dependent increase	150.41 ± 25.49 mg/kg	dose-dependent increase	0	0	0	0	0	0	0	0	0	0	0	0	0	0	0	0	effect on neuropathic pain (maximum found) [1]: up to 30%; antiallodynic effect (in words) ([2]; administered individually): moderate antiallodynic effect; antiallodynic effect (in words) ([3]; administered individually, diabetic neuropathy model): moderate antiallodynic effect; DE30 (effective dose that provides an analgesic effect of 30%) ([3]; diabetic neuropathy model, listed as Lysine Clonixinate): 150.41 mg/kg
NCC1(CC(=O)O)CCCCC1 [gabapentin, 2-[1-(aminomethyl)cyclohexyl] acetic acid]	83.82 mg/kg	dose dependent increase	39.62 ± 1.35 mg/kg	dose-dependent increase	0	0	0	0	0	0	0	0	0	0	0	0	0	0	0	0	patients showing drowsiness, dizziness, ataxia, headache and fatigue [5]: more than 10%; DE30 (effective dose that provides an analgesic effect of 30%) ([3]; diabetic neuropathy model, listed as Gabapentin): 39.62 mg/kg
